# Measurements as given in ChEMBL document CHEMBL1201862, “PubChem BioAssay data set” (2004).
# The source made the active and inactive calls.
# Key:
# [1] = target: T1, Histone-lysine N-methyltransferase NSD2 (Homo sapiens, UniProt O96028); assay type: biochemical
# T1 sequence (O96028 whole entry): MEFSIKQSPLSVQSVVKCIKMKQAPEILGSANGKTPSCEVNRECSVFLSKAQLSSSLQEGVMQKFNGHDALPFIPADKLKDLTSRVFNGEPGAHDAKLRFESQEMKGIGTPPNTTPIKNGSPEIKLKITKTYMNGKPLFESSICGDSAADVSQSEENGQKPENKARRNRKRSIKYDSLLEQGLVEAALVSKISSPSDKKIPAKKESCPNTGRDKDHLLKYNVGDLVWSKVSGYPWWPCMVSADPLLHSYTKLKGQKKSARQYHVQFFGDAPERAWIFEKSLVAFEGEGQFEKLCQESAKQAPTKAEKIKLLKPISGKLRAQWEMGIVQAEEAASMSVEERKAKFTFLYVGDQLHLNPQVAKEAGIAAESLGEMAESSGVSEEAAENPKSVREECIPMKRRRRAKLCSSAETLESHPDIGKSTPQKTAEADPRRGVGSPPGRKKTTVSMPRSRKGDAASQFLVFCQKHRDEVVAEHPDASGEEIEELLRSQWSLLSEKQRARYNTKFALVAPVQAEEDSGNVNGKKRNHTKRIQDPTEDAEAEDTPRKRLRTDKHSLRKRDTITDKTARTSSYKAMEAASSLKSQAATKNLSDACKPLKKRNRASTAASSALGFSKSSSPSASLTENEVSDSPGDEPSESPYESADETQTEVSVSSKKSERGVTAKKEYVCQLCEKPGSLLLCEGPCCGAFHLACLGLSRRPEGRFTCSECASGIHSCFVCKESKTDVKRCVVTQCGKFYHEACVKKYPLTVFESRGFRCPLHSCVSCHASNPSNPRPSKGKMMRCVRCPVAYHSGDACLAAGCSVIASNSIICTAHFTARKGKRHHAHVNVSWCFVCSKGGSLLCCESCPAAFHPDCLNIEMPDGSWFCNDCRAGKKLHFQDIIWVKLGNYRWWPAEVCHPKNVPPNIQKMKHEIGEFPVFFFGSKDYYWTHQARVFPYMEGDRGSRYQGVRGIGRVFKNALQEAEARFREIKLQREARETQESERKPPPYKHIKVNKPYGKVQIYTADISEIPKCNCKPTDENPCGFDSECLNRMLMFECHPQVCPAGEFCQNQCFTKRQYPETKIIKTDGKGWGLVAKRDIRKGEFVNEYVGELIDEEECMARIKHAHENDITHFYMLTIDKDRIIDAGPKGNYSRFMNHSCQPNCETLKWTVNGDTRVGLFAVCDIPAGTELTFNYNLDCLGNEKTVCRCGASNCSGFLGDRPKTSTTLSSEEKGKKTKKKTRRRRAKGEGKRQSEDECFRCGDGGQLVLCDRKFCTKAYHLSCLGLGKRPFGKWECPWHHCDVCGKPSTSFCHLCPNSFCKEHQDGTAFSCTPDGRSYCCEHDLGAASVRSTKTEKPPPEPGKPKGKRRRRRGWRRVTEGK
# [2] = target: T2, Short transient receptor potential channel 4 (Mus musculus, UniProt Q9QUQ5); experiment: calcium entry via TRPC4 opening agents – cell-based, HEK293 TRPC4/mu-opioid, Fluo-4 calcium, dose response (AID 434937); assay type: functional
# T2 sequence (Q9QUQ5 whole entry): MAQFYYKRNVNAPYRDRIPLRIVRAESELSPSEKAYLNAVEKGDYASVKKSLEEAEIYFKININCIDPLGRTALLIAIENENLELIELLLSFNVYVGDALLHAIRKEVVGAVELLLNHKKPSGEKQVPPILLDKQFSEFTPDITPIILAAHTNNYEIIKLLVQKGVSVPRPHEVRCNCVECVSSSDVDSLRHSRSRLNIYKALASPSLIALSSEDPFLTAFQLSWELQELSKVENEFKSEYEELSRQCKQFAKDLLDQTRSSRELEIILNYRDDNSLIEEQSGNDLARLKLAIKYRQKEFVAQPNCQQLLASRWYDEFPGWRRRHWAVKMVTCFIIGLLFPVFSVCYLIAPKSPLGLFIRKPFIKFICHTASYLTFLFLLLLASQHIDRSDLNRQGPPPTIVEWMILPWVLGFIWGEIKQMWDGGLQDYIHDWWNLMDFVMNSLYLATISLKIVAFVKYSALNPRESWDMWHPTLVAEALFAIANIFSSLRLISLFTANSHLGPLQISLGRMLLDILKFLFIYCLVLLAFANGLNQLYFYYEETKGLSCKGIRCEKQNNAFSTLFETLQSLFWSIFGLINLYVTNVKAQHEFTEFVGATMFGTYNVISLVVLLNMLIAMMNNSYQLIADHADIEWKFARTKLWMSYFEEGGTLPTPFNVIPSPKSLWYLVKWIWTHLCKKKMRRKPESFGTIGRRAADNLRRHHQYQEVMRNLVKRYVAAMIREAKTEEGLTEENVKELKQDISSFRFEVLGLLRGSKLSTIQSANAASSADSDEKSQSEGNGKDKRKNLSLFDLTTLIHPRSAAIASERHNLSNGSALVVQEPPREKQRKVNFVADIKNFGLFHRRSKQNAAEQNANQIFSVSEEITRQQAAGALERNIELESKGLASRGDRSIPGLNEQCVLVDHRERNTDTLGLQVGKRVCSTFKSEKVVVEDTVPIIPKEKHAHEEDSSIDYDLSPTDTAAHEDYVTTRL
# [3] = target: Photoreceptor-specific nuclear receptor (Homo sapiens, UniProt Q9Y5X4); assay type: functional, cell-based;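 note: CHO-S cells with Gal4-NCOR and VP16-NR2E3 two-hybrid luciferase reporter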
# Photoreceptor-specific nuclear receptor, sequence (Q9Y5X4 whole entry, the tested form may be a part): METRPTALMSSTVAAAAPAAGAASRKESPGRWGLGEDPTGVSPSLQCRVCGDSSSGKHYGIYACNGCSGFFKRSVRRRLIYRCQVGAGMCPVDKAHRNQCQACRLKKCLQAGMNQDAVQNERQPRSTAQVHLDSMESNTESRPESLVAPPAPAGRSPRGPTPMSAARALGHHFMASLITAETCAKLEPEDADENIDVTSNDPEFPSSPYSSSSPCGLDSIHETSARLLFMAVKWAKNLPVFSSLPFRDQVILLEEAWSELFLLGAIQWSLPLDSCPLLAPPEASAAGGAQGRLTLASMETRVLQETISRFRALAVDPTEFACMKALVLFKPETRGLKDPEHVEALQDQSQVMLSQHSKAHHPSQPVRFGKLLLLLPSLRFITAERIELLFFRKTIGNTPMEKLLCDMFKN
# [4] = fluconazole-exposed Candida albicans growth modulators – fluorescence, retest, confirmation (AID 2467); assay type: functional, cell-based
# [5] = NIH3T3 cell viability loss – ATP luminescence, mouse fibroblasts, counter-screen, dose response (AID 2010); assay type: functional, cell-based;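 note: cells exposed to compound for about 90 hours before reading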
# [6] = NIH-3T3 fibroblast cytotoxicity, dose response, cytotoxicity control, cell-based, fluorescence, Alamar Blue, secondary assay (AID 2327); assay type: functional;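 note: NIH-3T3 mouse fibroblasts cultured with fluconazole at 8 µg/mL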
# [7] = Trypanosoma cruzi growth suppression in host cells – NIH3T3 host cells, beta-gal luminescence, confirmation (AID 2044); assay type: functional, cell-based;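 note: intracellular parasites grown in NIH/3T3 mouse fibroblasts as host cells; luminescent beta-galactosidase reporter signal from transgenic T. cruzi replicating inside host cells; inhibitors lower the luminescence signal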
# HEK293 = experiment: EBV LMP1 TES2 canonical NF-kB signalling blockers – cell-based, HEK293, luciferase, cherry-pick, dose response (AID 588343); assay type: functional; conditions: Homo sapiens
# [8] = HEK-293T viability loss after treatment – luminescence, T-cell screen hits, cytotoxicity control for TCR NF-kB inhibitor project, dose response (AID 489026); assay type: functional, cell-based;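 note: cells exposed to compound about 14 hours before the viability readout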
# [9] = microbe, parasite or virus in culture; assay type: functional; conditions: Mycobacterium tuberculosis
# [10] = target: T3, High affinity choline transporter 1 (Homo sapiens, UniProt Q9GZV3); experiment: human choline transporter blockers, potency – cell-based, 5-point CRC, membrane potential dye, dose response (AID 504840); assay type: functional
# T3 sequence (Q9GZV3 whole entry): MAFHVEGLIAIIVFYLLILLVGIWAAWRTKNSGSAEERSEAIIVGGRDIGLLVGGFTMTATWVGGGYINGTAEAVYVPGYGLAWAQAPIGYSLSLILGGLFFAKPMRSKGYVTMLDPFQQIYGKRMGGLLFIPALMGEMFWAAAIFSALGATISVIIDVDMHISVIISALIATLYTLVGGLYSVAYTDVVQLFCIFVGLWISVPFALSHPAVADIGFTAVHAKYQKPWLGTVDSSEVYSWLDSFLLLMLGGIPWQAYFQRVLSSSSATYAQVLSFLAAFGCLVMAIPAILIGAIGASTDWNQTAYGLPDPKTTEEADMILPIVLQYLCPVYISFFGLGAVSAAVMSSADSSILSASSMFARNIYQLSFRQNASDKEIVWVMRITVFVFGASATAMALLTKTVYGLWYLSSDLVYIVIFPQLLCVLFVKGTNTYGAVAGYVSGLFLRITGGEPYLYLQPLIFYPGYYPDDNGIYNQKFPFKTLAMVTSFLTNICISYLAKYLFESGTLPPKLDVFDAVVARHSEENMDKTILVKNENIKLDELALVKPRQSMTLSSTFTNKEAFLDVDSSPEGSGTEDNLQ
# [11] = target: Heat shock protein HSP 90-alpha (Homo sapiens, UniProt P07900); assay type: functional, organism-based
# Vero = experiment: cells; assay type: functional; conditions: Chlorocebus sabaeus
# [12] = Luminescence Cell-Based Dose Retest to Confirm Inhibitors of Cancer Stem Cells. [Related pubchem assays (depositor defined):AID2717, AID2721]; assay type: functional; conditions: Homo sapiens
# Fatty acid synthase [13] = target: T4, Fatty acid synthase (Homo sapiens, UniProt P49327); experiment: inhibition of human FAS-TE enzyme activity – biochemical, endpoint fluorescence intensity, uHTS hits, dose response (AID 624327); assay type: functional;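 note: fluorescence from hydrolysis of an O-methyl fluorescein acyl ester substrate by the enzyme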
# T4 sequence (P49327 whole entry): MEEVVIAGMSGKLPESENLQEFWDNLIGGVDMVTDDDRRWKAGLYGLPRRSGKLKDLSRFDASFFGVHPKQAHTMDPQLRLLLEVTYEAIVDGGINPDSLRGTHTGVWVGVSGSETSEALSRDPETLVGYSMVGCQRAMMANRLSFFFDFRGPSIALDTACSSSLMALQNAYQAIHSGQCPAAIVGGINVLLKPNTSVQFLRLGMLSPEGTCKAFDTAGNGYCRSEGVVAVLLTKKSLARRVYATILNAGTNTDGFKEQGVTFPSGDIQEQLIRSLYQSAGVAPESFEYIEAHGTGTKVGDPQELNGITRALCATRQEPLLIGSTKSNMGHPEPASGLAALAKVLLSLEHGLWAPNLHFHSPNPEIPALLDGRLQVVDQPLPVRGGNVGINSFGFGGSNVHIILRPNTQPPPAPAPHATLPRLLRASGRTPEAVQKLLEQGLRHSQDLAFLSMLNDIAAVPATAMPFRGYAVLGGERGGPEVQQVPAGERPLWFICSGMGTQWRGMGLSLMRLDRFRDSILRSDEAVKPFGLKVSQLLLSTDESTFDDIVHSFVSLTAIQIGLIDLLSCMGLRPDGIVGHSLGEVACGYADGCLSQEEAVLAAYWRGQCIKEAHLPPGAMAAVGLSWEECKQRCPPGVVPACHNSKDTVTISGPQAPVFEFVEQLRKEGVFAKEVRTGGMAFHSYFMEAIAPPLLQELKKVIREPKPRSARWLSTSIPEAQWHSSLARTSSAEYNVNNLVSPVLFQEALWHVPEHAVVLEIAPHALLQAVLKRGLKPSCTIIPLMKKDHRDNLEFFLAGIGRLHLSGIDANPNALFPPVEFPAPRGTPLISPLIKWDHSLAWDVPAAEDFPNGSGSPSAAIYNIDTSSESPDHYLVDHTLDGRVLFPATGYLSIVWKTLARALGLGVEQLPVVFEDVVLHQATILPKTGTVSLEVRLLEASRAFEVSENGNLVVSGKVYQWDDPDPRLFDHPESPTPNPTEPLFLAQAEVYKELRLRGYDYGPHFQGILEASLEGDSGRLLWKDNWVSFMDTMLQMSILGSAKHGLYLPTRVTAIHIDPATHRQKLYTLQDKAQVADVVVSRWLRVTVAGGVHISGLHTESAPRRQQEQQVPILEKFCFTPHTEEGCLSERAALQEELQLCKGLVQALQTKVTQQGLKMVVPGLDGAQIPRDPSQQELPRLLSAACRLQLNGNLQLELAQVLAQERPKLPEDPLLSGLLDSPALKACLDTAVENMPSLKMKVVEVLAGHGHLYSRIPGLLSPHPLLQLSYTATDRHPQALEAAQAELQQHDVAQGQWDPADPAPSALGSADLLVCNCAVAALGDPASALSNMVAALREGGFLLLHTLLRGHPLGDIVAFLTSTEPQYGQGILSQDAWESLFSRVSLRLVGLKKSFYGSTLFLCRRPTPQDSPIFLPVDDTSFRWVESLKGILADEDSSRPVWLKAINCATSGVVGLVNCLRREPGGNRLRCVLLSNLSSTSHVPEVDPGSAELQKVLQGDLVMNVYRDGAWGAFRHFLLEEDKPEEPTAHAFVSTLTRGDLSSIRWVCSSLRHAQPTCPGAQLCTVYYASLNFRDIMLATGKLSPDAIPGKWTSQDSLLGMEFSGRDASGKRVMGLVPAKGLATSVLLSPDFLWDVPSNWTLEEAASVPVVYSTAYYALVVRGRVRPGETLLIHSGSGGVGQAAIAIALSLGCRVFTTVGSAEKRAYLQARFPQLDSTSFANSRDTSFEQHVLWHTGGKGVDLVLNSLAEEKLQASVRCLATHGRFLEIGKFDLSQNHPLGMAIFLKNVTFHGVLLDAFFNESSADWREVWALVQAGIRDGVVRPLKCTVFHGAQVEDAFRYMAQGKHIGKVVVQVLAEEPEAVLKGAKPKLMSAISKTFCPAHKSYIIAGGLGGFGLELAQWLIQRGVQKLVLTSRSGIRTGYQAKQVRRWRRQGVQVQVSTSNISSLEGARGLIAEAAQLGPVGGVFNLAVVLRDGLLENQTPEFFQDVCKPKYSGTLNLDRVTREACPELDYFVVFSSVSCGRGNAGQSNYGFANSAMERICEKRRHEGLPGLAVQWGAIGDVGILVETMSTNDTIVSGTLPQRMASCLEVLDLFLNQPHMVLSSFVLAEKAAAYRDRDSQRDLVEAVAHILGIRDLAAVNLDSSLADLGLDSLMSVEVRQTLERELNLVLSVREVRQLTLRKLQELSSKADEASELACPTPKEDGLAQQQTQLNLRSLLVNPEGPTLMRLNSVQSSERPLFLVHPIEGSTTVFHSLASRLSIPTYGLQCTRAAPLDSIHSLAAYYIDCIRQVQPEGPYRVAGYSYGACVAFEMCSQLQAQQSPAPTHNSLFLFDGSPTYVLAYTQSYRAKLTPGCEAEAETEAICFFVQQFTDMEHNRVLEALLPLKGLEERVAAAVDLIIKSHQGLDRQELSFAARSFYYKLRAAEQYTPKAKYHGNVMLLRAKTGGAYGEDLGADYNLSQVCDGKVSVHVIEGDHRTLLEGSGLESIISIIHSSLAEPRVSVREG
# Fatty acid synthase [14] = target: T4, Fatty acid synthase; experiment: inhibition of human FAS-TE enzyme activity – biochemical, kinetic fluorescence intensity, dose response (AID 624326); assay type: functional;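 note: rate of fluorescence rise from hydrolysis of a fluorogenic O-methyl fluorescein ester substrate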
# [15] = alpha-synuclein stem-loop luciferase translation blockers – H4 neuroglioma cells, luminescence, confirmation (AID 1988); assay type: functional, cell-based
# [16] = Luminescence Cell-Based Dose Response HTS to Identify Inhibitors of 5'UTR Stem-Loop Driven Prion Protein mRNA Translation in H4 Neuroglioblastoma Cells. [Related pubchem assays: 1827 (Project Summary), 1813 (Primary HTS)]; assay type: functional
# Streptococcus = experiment: GAS UMAA2166 growth inhibition – luminescence, BacTiterGlo, counter-screen for streptokinase expression inhibitor project, dose response (AID 1915); assay type: functional, organism-based;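 note: potency for reduction of bacterial viability or growth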
# [17] = luciferase reporter signal suppression in cells – H4 neuroglioma cells, luminescence, dose response (AID 1990); assay type: functional, cell-based
# [18] = system: Streptococcus sp. 'group A'; experiment: Streptococcus pyogenes SK(-)GAS viability under kanamycin – luminescence, BacTiterGlo, confirmation, counter-screen for streptokinase expression inhibitor project, dose response (AID 1900); assay type: functional, organism-based
# cells = assay type: functional
# [19] = target: T5, DNA repair protein RAD52 homolog (Homo sapiens, UniProt P43351); assay type: functional, biochemical
# T5 sequence (P43351 whole entry): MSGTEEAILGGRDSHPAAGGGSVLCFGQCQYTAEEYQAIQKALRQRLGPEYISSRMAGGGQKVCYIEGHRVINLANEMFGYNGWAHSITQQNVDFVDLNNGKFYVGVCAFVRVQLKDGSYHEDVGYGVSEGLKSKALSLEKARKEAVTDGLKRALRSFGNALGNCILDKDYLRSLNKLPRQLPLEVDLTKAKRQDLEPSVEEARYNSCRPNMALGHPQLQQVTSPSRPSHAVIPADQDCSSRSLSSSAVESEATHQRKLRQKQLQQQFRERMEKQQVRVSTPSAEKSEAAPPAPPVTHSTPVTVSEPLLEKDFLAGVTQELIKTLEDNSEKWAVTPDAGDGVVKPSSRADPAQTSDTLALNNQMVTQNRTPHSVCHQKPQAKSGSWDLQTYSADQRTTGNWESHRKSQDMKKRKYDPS
# [20] = viability of uninfected HEp-2 cells – cell-based, HTS, cytotoxicity control for RSV inhibitor project, dose response (AID 2410); assay type: functional; conditions: human respiratory syncytial virus
structure (smiles),measurement,setting,value
CCCCN(CC)CCNC(=O)c1ccc2c(Cl)c3c(nc2c1)CCC3,AC50,[1],> 20 µM (inactive)
same,EC50,[2],0.024 µM (active)
CC(C)(C)C(=O)Nc1ccc(Sc2ccc([N+](=O)[O-])cc2)cc1,IC50,[3],3.51 µM (active)
CN=C(S)N=CNOCc1ccc(Cl)cc1Cl,EC50,[4],< 0.03 µM (active)
same,IC50,[3],3.21 µM (active)
same,EC50,[5],7.02 µM (active)
same,EC50,[6],7.07 µM (inconclusive)
same,EC50,[7],0.368 µM (active)
CCC(=O)N1CCCc2cc(S(=O)(=O)N3CCN(c4ccccn4)CC3)ccc21,IC50,[3],2.3 µM (active)
CC1=C(C(=O)OCc2ccc3c(c2)OCO3)C(c2ccc(Cl)cc2)NC(=O)N1 (centres undefined),AC50,HEK293,0.299 µM (active)
same,IC50,[8],> 80 µM (inactive)
Cc1c(Cl)ccc2sc(N3CCN(C(=O)C4=COCCO4)CC3)nc12,IC50,[3],4.06 µM (active)
same,CC50,[9],38.1 µM (active)
CCC1(C)Cc2c(sc3[nH]c(=S)n(Cc4ccccc4)c(=O)c23)CO1 (centres undefined),IC50,[3],4.95 µM (active)
O=C1CC(O)(C(F)(F)F)Oc2c1ccc1ccccc21 (centres undefined),EC50,[2],9.44 µM (active)
same,IC50,[10],12.9 µM (active)
CCN1C(=O)/C(=C\C(=O)c2cccs2)c2cc(Br)ccc21,AC50,[11],3.66 µM (active)
same,CC50,Vero,> 25 µM (active)
COc1ccc(-c2csc3nc(-c4ccccc4F)oc(=O)c23)cc1OC,AC50,[12],5.19 µM (active)
same,IC50,Fatty acid synthase [13],9.02 µM (active)
same,IC50,Fatty acid synthase [14],6.25 µM (active)
COc1ccc(C(=O)NNC(=S)NC(=O)c2ccccc2)cc1,EC50,[15],15.5 µM (active)
same,EC50,[4],2.08 µM (active)
same,EC50,[2],5.96 µM (active)
same,EC50,[16],11.6 µM (active)
same,EC50,Streptococcus,3.03 µM (active)
same,EC50,[17],> 120 µM (not active)
same,EC50,[6],> 150 µM (inactive)
same,EC50,[18],1.18 µM (active)
COc1ccc(/C=C/c2nc3ccccc3c(=O)o2)cc1,EC50,[15],7.8 µM (inconclusive)
same,IC50,cells,21.5 µM (active)
same,EC50,[16],3.01 µM (active)
same,AC50,HEK293,0.507 µM (active)
same,EC50,[17],8.15 µM (inconclusive)
CCOc1cc(/C=C/C(=O)c2ccc(C)cc2)ccc1OCC(=O)N(C)C,CC50,Vero,> 25 µM (active)
COc1cc2cc(-c3ccc(OC)c(OC)c3C)nc(N)c2cc1OC,EC50,[15],0.344 µM (active)
same,EC50,[16],0.48 µM (active)
same,CC50,Vero,1.67 µM (active)
same,EC50,[17],0.597 µM (active)
same,AC50,[19],12.4 µM (active)
COc1ccc(NC(=O)c2cc3ccccc3oc2=O)cc1,AC50,HEK293,0.673 µM (active)
O=C(Nc1ccc(CN2CCOCC2)cc1)c1ccc(-c2cc(Cl)ccc2Cl)o1,CC50,[20],4.45 µM (active)
same,CC50,[9],29.3 µM (active)
same,CC50,Vero,21.1 µM (active)
